From US8778643B2, “Methods for increasing lipid levels and producing triacylglycerols in algae” (priority 2012, dated 2014)
Where “and” joins values, the source holds several entries; their conditions need not be identical. Equal values may be shown once. Read-outs that look alike come from different tables or passages of the source.

Assays:
[1] = test system: Nannochloris sp.; assay: Microplate assay: growth (absorbance 680 nm) and intracellular lipids (Nile Red fluorescence); format: cell-based
[2] = test system: Nannochloropsis oculata
[3] = test system: Nannochloropsis oculata; assay: Lipid composition of batch culture extracts (fatty acid saturation / PUFA by 1H NMR, MALDI-TOF, GC/MS); format: cell-based
Description: The nonpolar algal extracts were harvested from 500 mL cultures when indicated on growth curves, a minimum of 3 days into stationary phase. […] Cells were crushed and nonpolar lipids were extracted by sonication (Fisher Scientific Model 120 Sonic Dismembrator, ThermoFisher, San Jose) for 1 minute in chloroform, followed by chloroform-methanol extractions, washed with PBS butter, and dried under vacuum.^55-60 The crude non-polar algae extracts were then analyzed by ^1H Nuclear Magnetic Resonance (^1H NMR) for verification of TAG presence and examination of the purity of the extract (determination of level of chlorophyll). The extracts were then divided for analysis; one part for transesterification, one part to save as crude extract, and one part for SPE separation and MALDI-TOF analysis of TAGs.
Triacylglycerols can be isolated by solid-phase extraction (SPE) with 500 mg silica SPE cartridges (Silicycle, Quebec). The nonpolar extract is dissolved in 300 μL hexanes, and loaded on the SPE cartridge primed with hexanes. A mixture of 80:20:1 hexanes/diethyl ether/acetic acid was used as mobile phase to elute the TAGs.^61 SPE removes any chlorophyll in this process. Residual polar fraction containing polar lipids and chlorophyll was obtained by elution with acetone. All extracts and TAG fractions were dried under vacuum and stored under argon in amber vials at −20° C. before spectroscopic analysis. After SPE, the purified TAG fraction was reanalyzed with ^1H NMR spectroscopy for TAG characterization.
The TOF was in Reflectron mode with laser intensity from 5500-6500 Volts. Each acquisition consisted of 2500 shots with a focus mass of 900 Da, and a scan range of m/z 400-1100. Multiple acquisition scans were performed at different laser intensities to determine optimal conditions. Samples for the MALDI-TOF were diluted to 5 mg/mL in hexane, and spotted in the fast-evaporation method in a 1:2 ratio with DHB (2,5-dihydroxybenzoic acid) as the matrix. Re-spotting with methanol allowed for the matrix and sample to mix without hexane interactions, and allowed for better crystal formation. All samples on MALDI plate were allowed to dry before MS analysis. Data was normalized to base peak in all cases.
After the initial weight was recorded, the nonpolar extract set aside for transesterification was dissolved in 3.0 mL of 0.6 M sulfuric acid in methanol and stirred vigorously at 60° C. for 45 minutes.
Initial GC/MS temperature was 50° C. and end was 200° C. over at a one hour period for optimal FAME peak separation.
Peak assignment of fatty acids and their derivatives are based on NMR spectroscopic studies of previously reported algal lipid extracts^9 and comparison to standards such as olive oil (ACROS) and fatty acid mixtures.
We developed a quick and robust method to screen if the screened compound effect fatty acid saturation levels using ^1H NMR spectroscopy. The amount of saturated fatty acids (SFA), monounsaturated fatty acids (MUFAs), and polyunsaturated fatty acids (PUFAs) was determined using peak area ratios.
Calculated based on ^1H NMR integral ratios for the proton signals for the methyl group of PUFA components vs. the methyl groups of monounsaturated and saturated components.

[4] = test system: Phaeodactylum tricornutum; assay: Microplate assay: growth (absorbance 680 nm) and intracellular lipids (Nile Red fluorescence); format: cell-based
Description: (§1) Stock cultures were aerated by stirring with bubbling air (homemade manifold with Petco air pump, 2-4% CO2) or by orbital shaking (Thermo Scientific MAXQ 2000) at a constant speed of 150 rpm at 22±3° C. with a 16:8 hour light/dark cycle. Stocks were kept at stationary phase for use. Algae were prepared as dictated by culture center.
(§2) Compounds were selected based on reported biological activity in non-microalgae organisms. To ensure that compounds retained their quality, they were stored under advised conditions after purchasing from the manufacturer. Solutions of all assay compounds were prepared as 10 mM stock solutions by dissolving in DMSO in 2-dram amber vials and then stored in darkness −20° C. 96-well PCR plates were used to create a stock plate layout that was then transferred to the algae microplates. A plate map was used to distribute each compound to a well based on molecule name, collection number, and CAS number. For 20 μM and 200 nM assay plates, 10 mM compound stock in DMSO was diluted into plate maps of 5 mM and 50 μM assay stocks, respectively.
(§3) All materials for assay experiments were autoclaved before each use to maintain axenic algae cultures. Algae species were checked for homogeneity using a TS-100 light microscope (Nikon, Japan). […] Diluted stock solutions were made immediately prior to use for consistency and optimal plate growth. Cell density was measured on a Thermo Scientific Genesys 10S Vis Spectrophotometer (ThermoFisher, San Jose), using a 1 mL cuvette at 680 nm.
(§4) Plates were originally run in triplicate, before replicates were increased to quadruplicate, along with a separate control plate to compare growth. Due to extensive evaporation in exterior wells over time, our unique algae plate layout was designed to use the 60 interior wells out of 96 wells for the experiment. The 36 outer wells were filled with Millipore water and media to prevent evaporation and edge effects in the inner algae wells, as well as serve as blanks. The 60 wells with algae contained a total volume of 251 μL (100 μL of media+DMSO compound stock +150 μL dilute algae stock). For 20 μM and 200 nM assay plates, 10 mM compound stock in DMSO is diluted into plate maps of 5 mM and 50 μM assay stocks, respectively. […] Plates were parafilmed during growth to limit the amount of evaporation that can occur. Plates were numbered, and numerically ordered to ensure they got the same shaker space.
(§5) The shakers are kept at a constant shaking of 150 rpm. Ambient temperature is 22±3° C.

[5] = test system: Nannochloropsis oculata; assay: 500 mL batch culture: growth, dry weight and lipid extract (gravimetric); format: cell-based
Description: Batch cultures were grown in 500 mL Pyrex media bottles with stirring and air bubbling (homemade manifold with Petco air pump, 2-4% CO2). Incoming air was sterile filtered by Polyvent 4 disposable filters (Whatman, Kent, UK). […] To minimize bacterial contamination, all equipment and materials were autoclaved and media was added to flask in a Purifier Vertical Clean bench (Labconco, Kansas City, Mo.). […] The amount of DMSO is standardized for all experiments to 0.4%.
For all compound cultures, the 2 mL DMSO stock solution was added to media (without algae) first and mixed well. Control cultures were grown without DMSO. DMSO controls consisted of 0.04-1.0% DMSO. After the addition of algae and media, the container was plugged with a bug stopper vented closure cap and mixed thoroughly. Absorbance is measured immediately for Day 0 analysis. Afterward, absorbance was measured every 1-2 days with a cuvette (1 mL volume) on the Thermo Scientific Genesys 10S V is Spectrophotometer (ThermoFisher, San Jose) at 680 nm.
Batch cultures were also repeated in triplicate and compared to a control culture grown at the same time. Algae were harvested and lipids were extracted for gravimetric analysis.
The nonpolar algal extracts were harvested from 500 mL cultures when indicated on growth curves, a minimum of 3 days into stationary phase.
Cell density was monitored by measuring absorbance at 680 nm every 1-2 days.
500-mL cultures were harvested 6 days into stationary phase based on absorbance values. Cells were concentrated by centrifugation and lyophilization to remove water. Nonpolar lipids were extracted by sonication and solvent (chloroform-methanol and PBS buffer). […] Changes in lipid levels for batch cultures were determined by crude lipid extract mass.

[6] = test system: Nannochloropsis salina
Description: as §1, §2, §3, §4, §5

[7] = Nannochloris sp., compounds tested at 20 μM, initial screening, p<0.05
[8] = N. oculata, compounds tested at 200 nM, initial screening, p<0.05

`CNC[C@H](O)c1ccc(O)c(O)c1` [Epinephrine] was tested, and the “Nile Red Fluorescence % Increase” value [1] was 44.9% and the “Nile Red Fluorescence % Increase” value [2] was 129.3%.
For `OCC(O)CO` [Glycerol, propane-1,2,3-triol], the “SFAs (% of total lipids)” value ([3]; 11 mM, 1H NMR, Normal 24) was 39 % of total lipids, the “n3 PUFAs (% of UFAs)” value ([3]; 11 mM, 1H NMR, Normal 37) was 16 % of UFAs and the “All other PUFAs and MUFAs (% of UFAs)” value ([3]; 11 mM, 1H NMR, Normal 63) was 84 % of UFAs. For the same compound, the “UFAs (% of total lipids)” value ([3]; 11 mM, 1H NMR, Normal 76) was 61 % of total lipids, the “SFAs (%)” value ([3]; N. oculata, 1 g/L, n=1, Normal 0 ± 1) was 30% and the “MUFAs (%)” value ([3]; N. oculata, 1 g/L, n=1, Normal 4 ± 7) was 33%. For the same compound, the “n3 PUFAs (%)” value ([3]; N. oculata, 1 g/L, n=1, Normal 28 ± 4) was 10% and the “PUFAs (%)” value ([3]; N. oculata, 1 g/L, n=1, Normal 96 ± 7) was 38%.
`O=C(NCCN1CCC(n2c(=O)[nH]c3cc(Cl)ccc32)CC1)c1ccc(F)cc1` [Halopemide, N-[2-[4-(5-Chloro-2,3-dihydro-2-oxo-1H-benzimidazol-1-yl)piperidino]ethyl]-4-fluorobenzamide] was tested, and the “% change in abs” value ([4]; P. tricornutum, 10 μM) was −31.22%, the “% in NR fl” value ([4]; P. tricornutum, 10 μM) was 73.94% and the “% change in abs” value ([2]; N. oculata, 40 μM) was −2.02%. For the same compound, the “% in NR fl” value ([2]; N. oculata, 40 μM) was 55.13%.
With `CC(O)C(=O)O` (centres unmarked) [Lactic Acid] the “Nile Red Fluorescence % Increase” value [1, 7] was 30.9% and the “Nile Red Fluorescence % Increase” value [2, 8] was 128.8%.
In the case of `O=C([O-])O.[Na+]` [NaHCO3], the Absorbance at harvest [5] is reported as 2.373 ± 0.217, the Dry weight [5] is reported as 371 ± 117.8 and the “Extract Weight” value [5] is reported as 93.5 ± 34.0.
In the case of `O=P(O)(O)Oc1ccc2ccccc2c1` [Napthyl acid phosphate, naphthalen-2-yl hydrogen phosphate], the “% Increase based on Nile Red Fluorescence Intensity” value (from here on “% Increase based”) [4] is reported as 51%, the “% Lipid increase based on Nile red fluorescence intensity” value (shortened to “% Lipid increase based”) [4] is reported as 51% and the “% increase (lipid production)” value [4] is reported as 4% and 1-60%. The “% increase (lipid production)” value [2] was 18%.
In the case of `O=c1c(O)c(-c2ccc(O)c(O)c2)oc2cc(O)cc(O)c12` [Quercitin], the “% Inc” value ([2]; increase of lipid production, N. oculata, best conc. 2.5 μM) is reported as 67.10%.
`c1ccc2ncncc2c1` [Quinazoline, Benzopyrimidine] was tested, and the “% increase (lipid production)” value ([4]; 4-40 μM (H2O)) was 15-26 (H2O) % and the “% increase (lipid production)” value ([6]; […]-40 μM) was “(none)”.
In the case of `O=C(NCCCCCCNC(=O)ON=C1CCCCC1)ON=C1CCCCC1` [RHC80267, 1,6-bis(Cyclohexyloximinocarbonylamino)hexane], the “% change in abs” value [4] is reported as −6.46%, the “% in NR fl” value [4] is reported as 45.19% and the “% in NR fl” value [6] is reported as 71.52% and 68.33%. The “% change in abs” value [2] was 12.83% and the “% in NR fl” value [2] was 49.41%.
In the case of `Oc1ccc(/C=C/c2cc(O)cc(O)c2)cc1` [Resveratrol, 5-[(E)-2-(4-hydroxyphenyl)ethenyl]benzene-1,3-diol], the “% Lipid increase based” value ([4]; P. tricornutum, 10 nM, DMSO, t=day 0) is reported as 61%, the “% Increase based” value ([4]; P. tricornutum, 10 nM, DMSO delivery, added t=day 0) is reported as 61% and the “Nile Red Fluorescence % Increase” value [1, 7] is reported as 53.3%. For the same compound, the “% Inc” value ([6]; increase of lipid production, N. salina, best conc. 10 nM) was 272.72% and the “Nile Red Fluorescence % Increase” value [2, 8] was 120.4%.
In the case of `C/C(=C\CNc1ncnc2nc[nH]c12)CO` [Zeatin, (E)-2-methyl-4-(7H-purin-6-ylamino)but-2-en-1-ol], the “% Increase based” value [4] is reported as 114%, the “% Lipid increase based” value [4] is reported as 114% and the “% Increase based” value [6] is reported as 64% and 50%. For the same compound, the “% Lipid increase based” value [6] was 64% and the “Nile Red Fluorescence % Increase” value [2] was 157.1%.
